According to patent US5892041A, “Fused indolecarboxamides: dopamine receptor subtype specific ligands” (Neurogen Corporation, priority 1996, dated 1999):
Structures can show the parent of a compound that is named as a salt.

Experiments:
D3 receptors = biological target: T1, D3 receptors (Chlorocebus aethiops, UniProt P52703); test: D3 receptor binding ([3H]YM 09151-2 displacement, COS cell pellets with recombinant receptor); set-up: species or system African Green monkey; settings: 0.5 nM 3H-YM 09151-2; recombinant receptor in COS cells; nonspecific with 1 mM spiperone; text also says rat striatal homogenates
T1 construct: expressed in transfected cells; host or cells: COS cells
Procedure: (§1) Pellets of COS cells containing recombinantly produced D2 or D3 receptors from African Green monkey were used for the assays. The sample is homogenized in 100 volumes (w/vol) of 0.05M Tris HCl buffer at 4° C. and pH 7.4. The sample is then centrifuged at 30,000×g and resuspended and rehomogenized. The sample is then centrifuged as described and the final tissue sample is frozen until use. The tissue is resuspended 1:20 (wt/vol) in 0.05M Tris HCl buffer containing 100 mM NaCl.
(§2) Incubations are carried out at 48° C. and contain 0.4 ml of tissue sample, 0.5 nM ^3 H-YM 09151-2 and the compound of interest in a total incubation of 1.0 ml. Nonspecific binding is defined as that binding found in the presence of […] spiperone; without further additions, nonspecific binding is less than 20% of total binding. The binding characteristics of representative compounds of the invention for D2 and D3 receptor subtypes are shown in Table 2 for rat striatal homogenates.

D2 receptors = biological target: T2, D2 receptors (Chlorocebus aethiops, UniProt P52702); test: D2 receptor binding ([3H]YM 09151-2 displacement, COS cell pellets with recombinant receptor); set-up: species or system African Green monkey; settings: 0.5 nM 3H-YM 09151-2; recombinant receptor in COS cells; nonspecific with 1 mM spiperone; text also says rat striatal homogenates
T2 construct: 3H-YM 09151-2 displacement
Procedure: as §1, §2

T2 sequence (P52702 whole entry): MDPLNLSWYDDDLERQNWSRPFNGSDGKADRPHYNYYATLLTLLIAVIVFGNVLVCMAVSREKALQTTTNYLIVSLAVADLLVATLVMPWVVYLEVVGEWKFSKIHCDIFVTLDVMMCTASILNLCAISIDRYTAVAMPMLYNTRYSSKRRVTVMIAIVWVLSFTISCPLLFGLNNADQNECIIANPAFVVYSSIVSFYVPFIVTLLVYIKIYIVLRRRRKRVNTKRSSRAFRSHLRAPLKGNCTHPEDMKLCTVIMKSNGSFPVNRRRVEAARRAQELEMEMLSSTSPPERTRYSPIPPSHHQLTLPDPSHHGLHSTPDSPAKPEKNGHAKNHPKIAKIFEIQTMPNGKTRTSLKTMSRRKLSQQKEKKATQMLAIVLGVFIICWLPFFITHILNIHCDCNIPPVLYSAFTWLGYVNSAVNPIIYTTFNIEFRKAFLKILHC
T1 sequence (P52703 whole entry): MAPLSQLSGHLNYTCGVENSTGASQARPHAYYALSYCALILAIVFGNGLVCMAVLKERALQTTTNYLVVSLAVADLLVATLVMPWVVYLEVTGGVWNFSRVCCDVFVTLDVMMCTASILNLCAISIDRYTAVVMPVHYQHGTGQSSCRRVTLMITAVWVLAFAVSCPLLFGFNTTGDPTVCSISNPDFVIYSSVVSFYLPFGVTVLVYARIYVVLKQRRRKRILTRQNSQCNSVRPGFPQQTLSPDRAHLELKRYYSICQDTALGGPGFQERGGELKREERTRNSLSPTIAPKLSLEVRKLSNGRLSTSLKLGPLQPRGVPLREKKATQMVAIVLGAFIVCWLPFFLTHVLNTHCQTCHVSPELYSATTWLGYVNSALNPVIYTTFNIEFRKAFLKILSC

Compound: O=C(NCCCCN1CCN(c2cccc(Cl)c2Cl)CC1)c1ccc2[nH]c3c(c2c1)CCCC3 [Compound 1, N-(1-{4-[4-(2,3-dichlorophenyl)piperazine-1-yl]}butyl)-1,2,3 4-tetrahydrocarbazole-6-carboxamide hydrochloride]
- Ki (D3 receptors): 0.5 nM
- Ki (D2 receptors): 250 nM

Compound: Cn1c2ccccc2c2cc(C(=O)NCCCCN3CCN(c4cccc(Cl)c4Cl)CC3)ccc21 [Compound 3, N-(1-{4-[4-(2,3-dichlorophenyl)piperazine-1-yl]}butyl)-9-methylcarbazole-3-carboxamide hydrochloride]
- Ki (D3 receptors): 2 nM
- Ki (D2 receptors): 540 nM

Compound: O=C(NCCCCN1CCN(c2cccc(Cl)c2Cl)CC1)c1ccc2c(c1)[nH]c1ccccc12 [Compound 4, N-(1-{4-[4-(2,3-dichlorophenyl)piperazine-1-yl]}butyl)-9H-carbazole-2-carboxamide hydrochloride]
- Ki (D3 receptors): 1 nM
- Ki (D2 receptors): 750 nM
